Measurements reported in patent US9339491B2, “Use of a pyrazole derivative in the treatment of acute exacerbations of chronic obstructive pulmonary disease” (Mereo BioPharma 1 Limited, priority 2012, dated 2016).

How the values were obtained:
[1] = test system: patients who have an acute COPD exacerbation; assay: Clinical study in acute COPD exacerbation: dyspnea by Borg CR 10 scores; type: in vivo, human; set-up: AUC[days 2-14] in Borg CR 10 scores, Difference LS mean, Compound A - prednisone / AUC[days 2-14] in Borg CR 10 scores (adjusted for Day 1), LS mean / AUC[days 2-14] in Borg CR 10 scores, Difference LS mean, treatment - placebo: unit not given beside the values; settings: for AUC[days 2-14] in Borg CR 10 scores (adjusted for Day 1), LS mean: per treatment arm; for AUC[days 2-14] in Borg CR 10 scores, Difference LS mean, treatment - placebo: versus placebo
Procedure: “BORG Score” as used herein refers to a measurement of dyspnea in accordance with the Borg scale. On that scale 0 represents no breathlessness at all and 10 represents maximum breathlessness.
(§1) An exploratory, randomized, double-blind, placebo controlled, multi-center study to assess the efficacy, safety and tolerability of a single 75 mg dose of 3-[5-amino-4-(3-cyano-benzoyl)-pyrazol-1-yl]-N-cyclopropyl-4-methylbenzamide administered orally to patients who have an acute COPD exacerbation
(§2) The efficacy, safety and tolerability of a single 75 mg dose of 3-[5-amino-4-(3-cyano-benzoyl)-pyrazol-1-yl]-N-cyclopropyl-4-methylbenzamide (Compound A) administered orally to patients who have an acute COPD exacerbation was conducted.
(§3) 90 patients were randomized 1:1:1 to three treatment arms.
(§4) =single 75 mg dose of Compound A on day 1+prednisone placebo×10 days
(§5) =single dose of Compound A placebo on day 1+prednisone placebo×10 days
(§6) =single dose of Compound A placebo on day 1+40 mg oral prednisone […]×10 days
(§7) =doxycycline 100 mg dose×10 days or a non-macrolide antibiotic concurrent with local prescribing antibiotic guidelines.
(§8) Key efficacy endpoints: • FEV1 improvement from baseline at Day 5 • BORG Scores • EXACT PRO: • Recovery defined as reduction in EXACT score ≧9 points benchmarked against the maximum observed score (MOV: highest EXACT score using a 3-day rolling average) over the 14 day period following onset. • Time to recovery • Severity • Maximum severity—highest exact score over 30 days • Total severity—area under the curve from onset (i.e. Day 1) to recovery/Day 30 whichever comes first based on total exact score. • Duration of exacerbation (days from onset to recovery/Day 30) • Frequency of patients who recovered at Day 30 • Treatment failure: • Patients who were treated with oral corticosteroids, admitted to hospital to COPD related symptoms, changed in antibiotic therapy relating to COPD, or in the attending physicians opinion needed treatment for a further exacerbation.
LS is an abbreviation for least squares.

[2] = test system: patients who have an acute COPD exacerbation; assay: Clinical study in acute COPD exacerbation: patient disposition / discontinuation; type: in vivo; settings: for Reason for discontinuation: Death: 2nd interim, 30 days of follow-up, Compound A N = 31, Prednisone N = 30; for Reason for discontinuation: Adverse Events: human, in vivo
Procedure: as §1, §2, §3, §4, §5, §6, §7
(§9) Present data (at 2nd interim) includes total of 91 randomized patients with 30 days of follow-up.

[3] = test system: patients who have an acute COPD exacerbation; assay: Clinical study in acute COPD exacerbation: safety and tolerability (adverse events); type: in vivo, human
Procedure: as §1, §2
Secondary objectives: Safety and tolerability, patient reported outcomes, and time to next exacerbation.
as §3, §4, §5, §6, §7
Initial hospitalization for COPD exacerbation at baseline was not recorded as a serious adverse event (SAE). Only subsequent admissions were recorded. […] No rash was noted. No unusual events or imbalances between treatment arms were noted.

[4] = test system: patients who have an acute COPD exacerbation; assay: Clinical study in acute COPD exacerbation: treatment failure composite endpoint; type: in vivo, human; settings: retreatment with antibiotics, oral steroids, death, hospitalization or treatment indicating another exacerbation
Procedure: as §1, §2, §3, §4, §5, §6
=doxycycline 100 mg dose×10 days or a non-macrolide antibiotic concurrent with local prescribing antibiotic guidelines. […]

[5] = test system: patients who have an acute COPD exacerbation; assay: Clinical study in acute COPD exacerbation: efficacy measured by FEV1; type: in vivo, human; settings: for FEV1 change from baseline, Difference, Compound A v prednisone: single 75 mg oral Compound A v 40 mg oral prednisone x 10 days; for FEV1 change from baseline, Difference, Compound A v placebo: single 75 mg oral dose of Compound A, ANCOVA repeated measurements
Procedure: “Forced Expiratory Volume in One Second” or “FEV1” as used herein is the volume of air that can forcibly be blown out in one second, after full inspiration, which is measured by a spirometer. It is a measure of lung function or performance. Average values for FEV1 in healthy people depend mainly on sex and age. Values of between 80% and 120% of the average value are considered normal.
as §1, §2
Primary objective: Assess the efficacy of a single 75 mg dose of Compound A in COPD patients presenting with an exacerbation as measured by the improvement in FEV1 over the first 5 days of treatment relative to placebo.
as §3, §4, §5, §6, §7
Visits at Days 3, 5 and 14 and follow-up visits 30 and 90 days. End of study visit at 6 months.
as §9
Inclusion criteria for the study population were: • Males/females ≧40 to ≦80 years • GOLD stages 2 to 4 • Smoking history at least 10 pack years • Investigator defined COPD exacerbation
Exclusion criteria for the study population were: • Arterial blood pH <7.26 at randomization • History or presence of clinically uncontrolled left heart failure • Clinical or radiological evidence of pneumonia • Long term Oxygen >15 hours a day • History of clinically significant ECG abnormalities • History or presence of impaired renal function • Use of macrolide antibiotics within 48 hours of randomization
as §8
FEV1 change from baseline analysed with ANCOVA ([…]) model for repeated measurements. Estimated between patient standard deviation—200 ml.

[6] = Compound A N = 31, Prednisone N = 30

Compound: C[C@]12C=CC(=O)C=C1CC[C@@H]1[C@@H]2C(=O)C[C@@]2(C)[C@H]1CC[C@]2(O)C(=O)CO [Prednisone, prednisone, reference compound]
- AUC[days 2-14] in Borg CR 10 scores (adjusted for Day 1), LS mean ([1]; days 2-14): 3.61
- AUC[days 2-14] in Borg CR 10 scores, Difference LS mean, treatment - placebo ([1]; days 2-14, adjusted for Day 1): 0.13
- Reason for discontinuation: Death [2]: 2 (6.7) n (%)
- Reason for discontinuation: Adverse Events [2]: 0 (0.0) n (%)
- Number of subjects with AE: Abdominal pain upper [3, 6]: 1 (3.3) n (%)
- Number of subjects with AE: Any AE [3, 6]: 12 (40.0) n (%)
- Number of subjects with AE: COPD [3, 6]: 5 (16.7) n (%)
- Number of subjects with AE: Diarrhoea [3, 6]: 0 (0.0) n (%)
- Number of subjects with AE: Dizziness [3, 6]: 0 (0.0) n (%)
- Number of subjects with AE: Headache [3, 6]: 3 (10.0) n (%)
- Number of subjects with AE: Nasopharyngitis [3, 6]: 1 (3.3) n (%)
- Number of subjects with AE: Nausea [3, 6]: 2 (6.7) n (%)
- Number of subjects with AE: Occult blood [3, 6]: 1 (3.3) n (%)
- Number of subjects with AE: Vertigo [3, 6]: 1 (3.3) n (%)

Compound: Cc1ccc(C(=O)NC2CC2)cc1-n1ncc(C(=O)c2cccc(C#N)c2)c1N [Compound A, 3-[5-Amino-4-(3-cyanobenzoyl)-pyrazol-1-yl]-N-cyclopropyl-4-methylbenzamide]
- Breathlessness over 14 days compared with prednisone ([1]; over 14 days): on average less breathless
- AUC[days 2-14] in Borg CR 10 scores (adjusted for Day 1), LS mean ([1]; days 2-14): 3.25
- AUC[days 2-14] in Borg CR 10 scores, Difference LS mean, treatment - placebo ([1]; days 2-14, adjusted for Day 1): −0.23
- AUC[days 2-14] in Borg CR 10 scores, Difference LS mean, Compound A - prednisone ([1]; versus prednisone, days 2-14, adjusted for Day 1): −0.36
- Treatment failures (composite endpoint) [4]: 0 patients
- Reason for discontinuation: Death [2]: 0 (0.0) n (%)
- Reason for discontinuation: Adverse Events ([2]; 30 days): 0 (0.0) n (%)
- COPD adverse events ([3]; human, in vivo): No COPD adverse events were observed
- Number of subjects with AE: Abdominal pain upper ([3]; human, in vivo): 1 (3.2) n (%)
- Number of subjects with AE: Any AE ([3]; human, in vivo): 8 (25.8) n (%)
- Number of subjects with AE: COPD ([3]; human, in vivo): 0 (0.0) n (%)
- Number of subjects with AE: Diarrhoea ([3]; human, in vivo): 1 (3.2) n (%)
- Number of subjects with AE: Dizziness ([3]; human, in vivo): 2 (6.5) n (%)
- Number of subjects with AE: Headache ([3]; human, in vivo): 1 (3.2) n (%)
- Number of subjects with AE: Nasopharyngitis ([3]; human, in vivo): 1 (3.2) n (%)
- Number of subjects with AE: Nausea ([3]; human, in vivo): 0 (0.0) n (%)
- Number of subjects with AE: Occult blood ([3]; human, in vivo): 1 (3.2) n (%)
- Number of subjects with AE: Vertigo ([3]; human, in vivo): 1 (3.2) n (%)
- Safety and tolerability ([3]; human, in vivo): safe and well tolerated
- Improvement in FEV1 versus placebo and prednisone ([5]; Day 3): greater improvement in FEV1
- FEV1 change from baseline, Difference, Compound A v prednisone ([5]; Day 3): 102.28 mL
- FEV1 change from baseline, Difference, Compound A v placebo ([5]; Day 3): 119.59 mL
- FEV1 change from baseline, Difference, Compound A v prednisone ([5]; Day 5): 109.15 mL
- FEV1 change from baseline, Difference, Compound A v placebo ([5]; Day 5): 46.56 mL
- Patients who responded with >100 ml improvement (FEV1) ([5]; day 3, single 75 mg oral dose): 60%
